According to ChEMBL document CHEMBL5038675, “Selective A3 Adenosine Receptor Antagonist Radioligand for Human and Rodent Species” (ACS Med Chem Lett, 2022):

What was measured:
Adenosine receptor A3 [1] = target: T1, Adenosine receptor A3 (Rattus norvegicus, UniProt P28647); type: cell-based, HEK293
T1 sequence (P28647 whole entry): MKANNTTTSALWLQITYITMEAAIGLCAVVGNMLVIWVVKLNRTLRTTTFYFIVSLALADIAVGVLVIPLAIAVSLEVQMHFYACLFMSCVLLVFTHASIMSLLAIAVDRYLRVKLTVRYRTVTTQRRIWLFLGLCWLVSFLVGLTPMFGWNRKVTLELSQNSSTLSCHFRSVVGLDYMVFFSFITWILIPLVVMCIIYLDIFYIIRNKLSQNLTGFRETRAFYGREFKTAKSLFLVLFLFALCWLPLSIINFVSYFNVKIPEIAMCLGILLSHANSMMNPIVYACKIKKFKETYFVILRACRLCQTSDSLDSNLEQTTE

Adenosine receptor A3 [2] = target: T2, Adenosine receptor A3 (Mus musculus, UniProt Q61618); type: cell-based, HEK293
T2 sequence (Q61618 whole entry): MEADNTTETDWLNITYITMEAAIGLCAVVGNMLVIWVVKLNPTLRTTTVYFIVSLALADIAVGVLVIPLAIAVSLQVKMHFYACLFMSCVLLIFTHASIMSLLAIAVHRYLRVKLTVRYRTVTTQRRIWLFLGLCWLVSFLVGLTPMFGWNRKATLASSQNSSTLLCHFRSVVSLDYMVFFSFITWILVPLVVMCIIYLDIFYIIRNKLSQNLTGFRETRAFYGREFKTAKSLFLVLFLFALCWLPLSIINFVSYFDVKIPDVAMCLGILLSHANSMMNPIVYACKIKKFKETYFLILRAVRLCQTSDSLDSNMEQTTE

[3] = Lipophilicity, logP of compound; type: physicochemical; settings: octanol/water
Adenosine receptor A2b [4] = target: Adenosine receptor A2b (Rattus norvegicus, UniProt P29276); test: Displacement of [3H] DPCPX from rat adenosine A2B receptor expressed in HEK293 cells incubated for 60 mins by radioligand binding assay; type: cell-based
Adenosine receptor A2b [5] = target: Adenosine receptor A2b (Mus musculus, UniProt Q60614); test: Displacement of [3H] DPCPX from mouse adenosine A2B receptor expressed in HEK293 cells incubated for 60 mins by radioligand binding assay; type: cell-based
Adenosine receptor A2b [6] = target: Adenosine receptor A2b (Homo sapiens, UniProt P29275); test: Displacement of [3H] DPCPX from human adenosine A2B receptor expressed in HEK293 cells incubated for 60 mins by radioligand binding assay; type: cell-based
Adenosine receptor A2a [7] = target: Adenosine receptor A2a (Mus musculus, UniProt Q60613); test: Displacement of [3H] ZM241385 from mouse adenosine A2A receptor expressed in HEK293 cells incubated for 60 mins by radioligand binding assay; type: cell-based
Adenosine receptor A2a [8] = target: Adenosine receptor A2a (Rattus norvegicus, UniProt P30543); test: Displacement of [3H] ZM241385 from rat adenosine A2A receptor expressed in HEK293 cells incubated for 60 mins by radioligand binding assay; type: cell-based
Adenosine receptor A2a [9] = target: Adenosine receptor A2a (Homo sapiens, UniProt P29274); test: Displacement of [3H] ZM241385 from human adenosine A2A receptor expressed in HEK293 cells incubated for 60 mins by radioligand binding assay; type: cell-based
Adenosine receptor A1 [10] = target: Adenosine receptor A1 (Rattus norvegicus, UniProt P25099); test: Displacement of [3H] DPCPX from rat adenosine A1 receptor expressed in HEK293 cells incubated for 60 mins by radioligand binding assay; type: cell-based
Adenosine receptor A1 [11] = target: T3, Adenosine receptor A1 (Mus musculus, UniProt Q60612); test: Displacement of [3H] DPCPX from mouse adenosine A1 receptor expressed in HEK293 cells incubated for 60 mins by radioligand binding assay; type: cell-based
T3 sequence (Q60612 whole entry): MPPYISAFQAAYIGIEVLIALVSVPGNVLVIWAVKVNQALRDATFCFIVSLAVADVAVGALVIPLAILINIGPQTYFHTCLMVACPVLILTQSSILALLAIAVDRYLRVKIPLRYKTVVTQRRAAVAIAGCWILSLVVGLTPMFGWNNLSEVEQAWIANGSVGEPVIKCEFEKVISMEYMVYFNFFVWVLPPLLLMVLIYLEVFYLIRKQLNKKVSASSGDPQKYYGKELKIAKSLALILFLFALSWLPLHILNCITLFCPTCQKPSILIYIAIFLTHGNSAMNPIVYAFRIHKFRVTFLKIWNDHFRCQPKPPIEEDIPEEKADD

Adenosine receptor A1 [12] = target: T4, Adenosine receptor A1 (Homo sapiens, UniProt P30542); test: Displacement of [3H] DPCPX from human adenosine A1 receptor expressed in HEK293 cells incubated for 60 mins by radioligand binding assay; type: cell-based
T4 sequence (P30542 whole entry): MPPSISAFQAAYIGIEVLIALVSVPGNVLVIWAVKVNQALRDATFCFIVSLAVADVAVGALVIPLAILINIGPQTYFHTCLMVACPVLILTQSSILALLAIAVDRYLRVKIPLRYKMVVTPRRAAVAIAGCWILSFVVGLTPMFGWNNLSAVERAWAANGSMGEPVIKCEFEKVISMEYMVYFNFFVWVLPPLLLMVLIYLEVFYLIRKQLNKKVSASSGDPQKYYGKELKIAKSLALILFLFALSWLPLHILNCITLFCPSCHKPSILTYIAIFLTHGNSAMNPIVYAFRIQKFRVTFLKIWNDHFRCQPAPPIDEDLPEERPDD

[13] = target: Muscarinic acetylcholine receptor M5 (Homo sapiens, UniProt P08912); test: Binding affinity to human M5 receptor by radioligand binding assay
[14] = target: 5-hydroxytryptamine receptor 2A (Homo sapiens, UniProt P28223); test: Binding affinity to human 5-HT2A receptor by radioligand binding assay
[15] = target: 5-hydroxytryptamine receptor 2C (Homo sapiens, UniProt P28335); test: Binding affinity to human 5-HT2C receptor by radioligand binding assay
[16] = C0 in Sprague-Dawley rat plasma at 1 mg/kg, iv measured after 8 hrs by LC-MS/MS analysis; type: ADME, organism-based
[17] = C0 in Sprague-Dawley rat brain at 1 mg/kg, iv measured after 8 hrs by LC-MS/MS analysis; type: ADME, organism-based
[18] = Drug concentration in Sprague-Dawley rat plasma assessed as average concentration at 1 mg/kg, iv measured after 8 hrs by LC-MS/MS analysis; type: ADME, organism-based; settings: in vivo
[19] = Drug concentration in Sprague-Dawley rat brain concentration assessed as average concentration at 1 mg/kg, iv measured after 8 hrs by LC-MS/MS analysis; type: ADME, organism-based; settings: in vivo
[20] = Clearance in Sprague-Dawley rat plasma at 1 mg/kg, iv measured after 8 hrs by LC-MS/MS analysis; type: ADME, organism-based
[21] = Volume of distribution in Sprague-Dawley rat plasma at 1 mg/kg, iv measured after 8 hrs by LC-MS/MS analysis; type: ADME, organism-based
[22] = Volume of distribution in Sprague-Dawley rat brain at 1 mg/kg, iv measured after 8 hrs by LC-MS/MS analysis; type: ADME, organism-based
[23] = Half life in Sprague-Dawley rat plasma at 1 mg/kg, iv measured after 8 hrs by LC-MS/MS analysis; type: ADME, organism-based
[24] = Half life in Sprague-Dawley rat brain at 1 mg/kg, iv measured after 8 hrs by LC-MS/MS analysis; type: ADME, organism-based
[25] = Fraction unbound in Sprague-Dawley rat plasma assessed as unbound fraction at 1 mg/kg, iv measured after 8 hrs by LC-MS/MS analysis; type: ADME, organism-based
[26] = Fraction unbound in Sprague-Dawley rat brain assessed as unbound fraction at 1 mg/kg, iv measured after 8 hrs by LC-MS/MS analysis; type: ADME, organism-based

Adenosine receptor A2a (Homo sapiens, UniProt P29274), sequence (P29274 whole entry): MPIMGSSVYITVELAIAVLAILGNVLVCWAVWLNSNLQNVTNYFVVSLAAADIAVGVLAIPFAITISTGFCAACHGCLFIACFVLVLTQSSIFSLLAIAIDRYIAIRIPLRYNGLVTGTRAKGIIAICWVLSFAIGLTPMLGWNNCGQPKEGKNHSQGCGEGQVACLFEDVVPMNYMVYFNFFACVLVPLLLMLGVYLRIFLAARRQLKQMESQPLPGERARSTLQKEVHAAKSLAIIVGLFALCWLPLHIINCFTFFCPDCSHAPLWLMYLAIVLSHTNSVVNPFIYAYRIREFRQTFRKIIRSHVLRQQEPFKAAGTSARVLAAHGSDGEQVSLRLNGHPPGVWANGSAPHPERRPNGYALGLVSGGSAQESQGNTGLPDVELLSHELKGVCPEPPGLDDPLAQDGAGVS
Adenosine receptor A2a (Rattus norvegicus, UniProt P30543), sequence (P30543 whole entry): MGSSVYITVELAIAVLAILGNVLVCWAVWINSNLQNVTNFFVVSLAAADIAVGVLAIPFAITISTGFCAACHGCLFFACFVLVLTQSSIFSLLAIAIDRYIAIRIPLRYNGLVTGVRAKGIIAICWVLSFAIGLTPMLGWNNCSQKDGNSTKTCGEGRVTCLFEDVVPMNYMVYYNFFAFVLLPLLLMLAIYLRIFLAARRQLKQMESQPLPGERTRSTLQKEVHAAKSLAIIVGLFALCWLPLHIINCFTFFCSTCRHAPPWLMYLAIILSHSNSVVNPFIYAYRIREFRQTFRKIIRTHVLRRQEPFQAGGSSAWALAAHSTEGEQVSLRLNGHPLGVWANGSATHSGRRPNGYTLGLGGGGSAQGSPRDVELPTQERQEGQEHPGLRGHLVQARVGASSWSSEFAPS
5-hydroxytryptamine receptor 2C, sequence (P28335 whole entry): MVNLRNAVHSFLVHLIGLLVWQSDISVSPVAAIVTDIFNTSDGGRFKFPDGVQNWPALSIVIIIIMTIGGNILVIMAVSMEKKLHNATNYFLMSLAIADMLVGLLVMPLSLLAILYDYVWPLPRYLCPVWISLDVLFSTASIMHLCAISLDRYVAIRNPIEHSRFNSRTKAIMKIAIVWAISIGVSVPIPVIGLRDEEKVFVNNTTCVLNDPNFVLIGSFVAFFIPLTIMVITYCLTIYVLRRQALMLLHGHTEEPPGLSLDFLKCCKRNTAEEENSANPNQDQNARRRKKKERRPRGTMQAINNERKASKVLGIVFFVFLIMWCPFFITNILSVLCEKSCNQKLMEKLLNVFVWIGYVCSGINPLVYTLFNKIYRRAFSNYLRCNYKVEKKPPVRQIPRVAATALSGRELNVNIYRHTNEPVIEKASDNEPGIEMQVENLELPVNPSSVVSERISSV
Muscarinic acetylcholine receptor M5, sequence (P08912 whole entry): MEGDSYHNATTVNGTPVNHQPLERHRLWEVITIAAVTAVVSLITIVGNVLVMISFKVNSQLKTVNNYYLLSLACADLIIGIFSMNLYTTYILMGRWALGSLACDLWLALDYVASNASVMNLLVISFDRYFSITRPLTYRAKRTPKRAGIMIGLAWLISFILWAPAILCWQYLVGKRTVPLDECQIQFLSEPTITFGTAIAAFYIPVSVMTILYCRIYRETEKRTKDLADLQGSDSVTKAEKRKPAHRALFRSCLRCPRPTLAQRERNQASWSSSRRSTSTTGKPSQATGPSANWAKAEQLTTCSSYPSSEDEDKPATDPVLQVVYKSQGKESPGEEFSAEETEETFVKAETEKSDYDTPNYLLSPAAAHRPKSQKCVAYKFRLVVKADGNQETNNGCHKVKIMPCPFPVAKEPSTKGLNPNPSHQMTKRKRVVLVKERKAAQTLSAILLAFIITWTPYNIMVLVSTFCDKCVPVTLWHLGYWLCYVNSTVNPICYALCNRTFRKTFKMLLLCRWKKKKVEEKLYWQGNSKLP
Adenosine receptor A2b (Homo sapiens, UniProt P29275), sequence (P29275 whole entry): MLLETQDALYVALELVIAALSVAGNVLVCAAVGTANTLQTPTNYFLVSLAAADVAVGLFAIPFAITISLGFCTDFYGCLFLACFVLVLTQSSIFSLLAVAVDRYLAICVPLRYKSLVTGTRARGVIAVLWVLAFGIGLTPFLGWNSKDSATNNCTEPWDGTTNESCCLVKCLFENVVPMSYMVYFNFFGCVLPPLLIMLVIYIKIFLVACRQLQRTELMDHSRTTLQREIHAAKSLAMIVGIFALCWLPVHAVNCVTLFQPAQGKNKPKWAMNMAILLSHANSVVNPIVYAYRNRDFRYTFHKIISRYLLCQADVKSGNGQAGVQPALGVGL
5-hydroxytryptamine receptor 2A, sequence (P28223 whole entry): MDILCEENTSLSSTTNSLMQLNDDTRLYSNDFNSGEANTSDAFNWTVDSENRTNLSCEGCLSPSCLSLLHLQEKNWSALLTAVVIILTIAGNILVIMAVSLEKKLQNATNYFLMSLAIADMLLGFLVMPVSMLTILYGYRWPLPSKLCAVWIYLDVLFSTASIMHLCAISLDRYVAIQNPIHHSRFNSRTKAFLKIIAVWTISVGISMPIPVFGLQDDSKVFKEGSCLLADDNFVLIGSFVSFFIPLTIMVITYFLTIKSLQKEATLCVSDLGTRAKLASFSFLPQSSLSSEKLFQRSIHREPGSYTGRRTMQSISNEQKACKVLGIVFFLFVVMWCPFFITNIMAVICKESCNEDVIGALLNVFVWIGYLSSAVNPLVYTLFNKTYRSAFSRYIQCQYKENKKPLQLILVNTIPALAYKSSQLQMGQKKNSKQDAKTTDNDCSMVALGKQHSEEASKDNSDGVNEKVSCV
Adenosine receptor A1 (Rattus norvegicus, UniProt P25099), sequence (P25099 whole entry): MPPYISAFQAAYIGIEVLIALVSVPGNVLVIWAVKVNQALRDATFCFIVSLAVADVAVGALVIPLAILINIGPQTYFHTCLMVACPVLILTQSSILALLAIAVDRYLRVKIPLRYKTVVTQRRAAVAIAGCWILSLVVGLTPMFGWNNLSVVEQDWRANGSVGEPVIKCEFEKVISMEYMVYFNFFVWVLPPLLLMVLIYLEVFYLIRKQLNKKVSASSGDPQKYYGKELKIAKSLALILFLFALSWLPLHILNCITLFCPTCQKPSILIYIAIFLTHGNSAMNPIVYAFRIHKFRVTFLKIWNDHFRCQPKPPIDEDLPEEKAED
Adenosine receptor A2b (Mus musculus, UniProt Q60614), sequence (Q60614 whole entry): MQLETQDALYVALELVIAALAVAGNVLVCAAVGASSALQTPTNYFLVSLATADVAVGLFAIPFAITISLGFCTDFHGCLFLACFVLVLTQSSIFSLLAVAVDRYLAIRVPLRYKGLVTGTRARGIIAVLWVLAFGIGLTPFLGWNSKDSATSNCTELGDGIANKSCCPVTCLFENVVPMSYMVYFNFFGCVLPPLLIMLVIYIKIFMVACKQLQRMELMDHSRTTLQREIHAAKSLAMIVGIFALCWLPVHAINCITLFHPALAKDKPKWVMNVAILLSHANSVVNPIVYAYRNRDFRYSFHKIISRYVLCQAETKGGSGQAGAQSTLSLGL
Adenosine receptor A2a (Mus musculus, UniProt Q60613), sequence (Q60613 whole entry): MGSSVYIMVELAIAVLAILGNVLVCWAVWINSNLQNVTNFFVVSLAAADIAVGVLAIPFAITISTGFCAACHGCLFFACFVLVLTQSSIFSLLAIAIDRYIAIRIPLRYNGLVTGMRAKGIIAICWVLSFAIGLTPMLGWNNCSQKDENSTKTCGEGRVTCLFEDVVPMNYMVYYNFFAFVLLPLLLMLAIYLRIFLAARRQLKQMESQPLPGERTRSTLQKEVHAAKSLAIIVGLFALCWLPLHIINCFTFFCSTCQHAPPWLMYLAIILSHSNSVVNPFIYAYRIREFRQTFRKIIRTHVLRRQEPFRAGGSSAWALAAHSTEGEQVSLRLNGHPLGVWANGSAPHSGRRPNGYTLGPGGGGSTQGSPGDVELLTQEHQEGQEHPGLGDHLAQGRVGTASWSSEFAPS
Adenosine receptor A2b (Rattus norvegicus, UniProt P29276), sequence (P29276 whole entry): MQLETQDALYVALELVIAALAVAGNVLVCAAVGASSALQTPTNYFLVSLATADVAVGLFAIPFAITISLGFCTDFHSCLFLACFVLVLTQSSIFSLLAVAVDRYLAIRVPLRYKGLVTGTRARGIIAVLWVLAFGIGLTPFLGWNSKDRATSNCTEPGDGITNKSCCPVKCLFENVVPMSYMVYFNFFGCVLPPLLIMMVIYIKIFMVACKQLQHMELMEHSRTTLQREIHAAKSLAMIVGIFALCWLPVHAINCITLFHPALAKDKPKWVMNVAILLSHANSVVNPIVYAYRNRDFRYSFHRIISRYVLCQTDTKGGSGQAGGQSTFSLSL

A Ki (Adenosine receptor A3 [1]) of 8.53 nM, a Ki (Adenosine receptor A3 [2]) of 9.61 nM and a logP [3] of 4.68 were found for `Cc1cc(C)cc(-c2nc(NC(=O)c3cccnc3)sc2-c2ccncc2)c1` in this work. It also gave a Ki (Adenosine receptor A2b [4]) of 163 nM, a Ki (Adenosine receptor A2b [5]) of 189 nM and a Ki (Adenosine receptor A2b [6]) of 230 nM. The Ki (Adenosine receptor A2a [7]) was 830 nM, the Ki (Adenosine receptor A2a [8]) was 1150 nM and the Ki (Adenosine receptor A2a [9]) was 121 nM. The Ki (Adenosine receptor A1 [10]) was 333 nM, the Ki (Adenosine receptor A1 [11]) was 411 nM and the Ki (Adenosine receptor A1 [12]) was 162 nM. The Ki [13] was 3700 nM, the Ki [14] was 960 nM and the Ki [15] was 790 nM. The C0 at 8 h [16] was 628 ng/mL, the C0 at 8 h [17] was 760 ng/mL and the Cave [18] was 52 ng/mL. It also gave a Cave [19] of 95 ng/mL, a clearance [20] of 40 mL/min/kg and a Vd [21] of 1.8 L/kg. The Vd [22] was 1.9 L/kg, the half-life [23] was 48 min and the half-life [24] was 42 min. It also gave a fraction unbound at 8 h [25] of 0.03 and a fraction unbound at 8 h [26] of 0.03.
